Earlier results in US10722518B2, “Oxazine derivative for use in the treatment or prevention of cerebral amyloid angiopathy” (Novartis AG, priority 2016, dated 2020).

Test system: APP23 mice
Conditions: aged APP23 mice treated for three months; cited from earlier work

SMILES: Cc1cc(C#N)cnc1C(=O)Nc1ccc(F)c([C@]2(C)CO[C@@](C)(C(F)(F)F)C(N)=N2)c1 [NB360]
- effect on CAA-related microhaemorrhage (volumetric MRI): no effect
